pEC50: −log10 of the molar value.
Columns and labels:
[1] = molecular target: T1, Cannabinoid receptor 1 (Homo sapiens, UniProt P21554); assay: Positive allosteric modulatory activity at human CB1R expressed in CHO-K1 cells assessed as CP55940-induced cAMP level by hit-hunter cAMP assay relative to control; assay type: functional, cell-based
[2] = molecular target: Cannabinoid receptor 1 (Mus musculus, UniProt P47746); assay: Positive allosteric modulatory activity at mouse CB1R expressed in CHO-K1 cells assessed as CP55940-induced beta-arrestin2 recruitment by pathhunter beta-arrestin assay; assay type: cell-based
[3] = molecular target: Cannabinoid receptor 1 (Mus musculus) (UniProt P47746); assay: Positive allosteric modulatory activity at mouse CB1R expressed in CHO-K1 cells assessed as CP55940-induced beta-arrestin2 recruitment by pathhunter beta-arrestin assay relative to control; assay type: cell-based
[4] = molecular target: T1, Cannabinoid receptor 1; assay: Positive allosteric modulatory activity at human CB1R expressed in CHO-K1 cells assessed as CP55940-induced cAMP level by hit-hunter cAMP assay; assay type: functional, cell-based

Sequence of Cannabinoid receptor 1 (Mus musculus) (P47746 whole entry): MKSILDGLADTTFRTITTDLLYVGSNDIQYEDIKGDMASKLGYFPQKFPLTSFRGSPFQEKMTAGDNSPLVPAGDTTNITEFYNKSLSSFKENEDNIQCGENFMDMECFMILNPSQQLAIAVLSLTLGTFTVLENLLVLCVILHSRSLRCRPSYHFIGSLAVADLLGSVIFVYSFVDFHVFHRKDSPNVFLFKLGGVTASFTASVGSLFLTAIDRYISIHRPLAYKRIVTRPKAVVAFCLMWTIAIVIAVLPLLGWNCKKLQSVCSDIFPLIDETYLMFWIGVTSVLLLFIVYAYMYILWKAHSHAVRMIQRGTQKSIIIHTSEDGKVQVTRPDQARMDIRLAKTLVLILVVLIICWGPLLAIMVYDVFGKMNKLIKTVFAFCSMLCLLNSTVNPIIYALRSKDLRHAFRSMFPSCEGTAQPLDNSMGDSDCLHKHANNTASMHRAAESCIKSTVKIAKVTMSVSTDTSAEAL
Sequence of Cannabinoid receptor 1 (Mus musculus, UniProt P47746) (P47746 whole entry): as above
T1 sequence (P21554 whole entry): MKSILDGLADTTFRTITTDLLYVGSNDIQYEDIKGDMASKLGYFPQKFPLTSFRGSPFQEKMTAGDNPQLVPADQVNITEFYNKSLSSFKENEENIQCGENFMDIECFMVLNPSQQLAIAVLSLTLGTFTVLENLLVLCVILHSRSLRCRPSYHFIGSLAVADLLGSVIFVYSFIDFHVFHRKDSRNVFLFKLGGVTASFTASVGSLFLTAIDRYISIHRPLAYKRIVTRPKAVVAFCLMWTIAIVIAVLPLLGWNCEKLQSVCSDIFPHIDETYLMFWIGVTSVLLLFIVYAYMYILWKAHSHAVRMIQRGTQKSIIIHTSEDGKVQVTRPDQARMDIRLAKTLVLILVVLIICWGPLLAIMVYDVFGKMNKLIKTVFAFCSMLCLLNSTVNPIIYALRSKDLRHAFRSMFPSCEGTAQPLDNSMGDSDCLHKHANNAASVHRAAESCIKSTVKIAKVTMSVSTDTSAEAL

| Compound | Emax [1] [%] | pEC50 [2] | Emax [3] [%] | pEC50 [4] |
| --- | --- | --- | --- | --- |
| O=[N+]([O-])CC(c1ccccc1)c1cn(-c2ccccc2)c2ccccc12 (stereo unspecified) | 0 | < 5.00 | 0 | < 5.00 |
| O=[N+]([O-])CCc1c(-c2ccccc2)[nH]c2ccccc12 | 85 | < 5.00 | 0 | 5.26 |
| O=[N+]([O-])CC(c1ccccc1)c1cc[nH]c1-c1ccccc1 (stereo unspecified) | 0 | < 5.00 | 0 | < 5.00 |
| O=[N+]([O-])CC(c1ccccc1)c1c(-c2ccccc2)[nH]c2ccccc12 (stereo unspecified) | 110 | 6.03 | 46 |  |
| NCC(c1ccccc1)c1c(-c2ccccc2)[nH]c2ccccc12 (stereo unspecified) | 12 | < 5.00 | 12 | < 5.00 |
| O=[N+]([O-])CC(c1ccccc1)c1c(C2CCCCC2)[nH]c2ccccc12 (stereo unspecified) | 121 | < 5.00 | 0 | 6.00 |
| O=[N+]([O-])CC(c1ccccc1)c1c[nH]c2ccccc12 (stereo unspecified) | 0 | < 5.00 | 0 | < 5.00 |
| Cn1c(-c2ccccc2)c(C(C[N+](=O)[O-])c2ccccc2)c2ccccc21 (stereo unspecified) | 0 | < 5.00 | 0 | < 5.00 |
